“Also recorded” adds a separate entry of the source. Read-outs that look alike come from different tables or passages of the source.
How the values were obtained:
A549 cell line = assay: Cytotoxicity by MTT assay, A549 cell line; format: cell-based, Human; conditions: for IC50: A549 cell line, purified compounds, incubation of 2 days, read-out: IC 50 of the Compounds Purified from Independent Synthesis, A549
Experimental: (§1) The cell lines were used in the present invention, including A549 (Human type II epithelial cell line, from American Type Culture Collection, Manassas, Va.) and MCF7 (solid human estrogen receptor positive breast carcinoma). A 10 μl coupling product solution was added into the well of microtiterplate planted with 100 μl of above mentioned cell lines in a concentration of 30000 cells/mL. Furthermore, the coupling product in each well was diluted before transferring to the plate. Thus the appropriate working concentration could be determined since the cellular survival ratio of most compounds acting as negative control is greater than 80%. The method was illustrated in FIG. 3. After an incubation of 2 days, the supernatants were washed, followed by adding MTT reagents. After 4 hours, absorbance at 580 nm was recorded according to the usual protocol.

MCF7 cell line = assay: Cytotoxicity by MTT assay, MCF7 cell line; format: cell-based, human; conditions: for IC50: MCF7 cell line, purified compounds, incubation of 2 days, read-out: IC 50 of the Compounds Purified from Independent Synthesis, MCF7; for biological activity (cytotoxicity) in crude library assay: crude coupling products, MCF7 (FIGS. 4a-c; cell line not always given)
Experimental: as §1

SMILES	IC50 (A549 cell line; Homo sapiens, 48 h) [µM]	IC50 (MCF7 cell line; Homo sapiens, 48 h) [µM]	IC50 (A549 cell line) [µM]	biological activity (cytotoxicity) in crude library assay (A549 cell line; crude coupling products, A549)	IC50 (MCF7 cell line) [µM]	biological activity (cytotoxicity) in crude library assay (MCF7 cell line)
C=C(CC)C(=O)c1ccc(OCC(=O)O)c(Cl)c1Cl [D15, 2-(2,3-dichloro-4-(2-methylenebutanoyl)phenoxy)acetic acid, reference compound]	84 ± 16	26 ± 2				
O=C(O)CCC(=O)c1ccc(-c2ccccc2)cc1 [D18, 4-([1,1′-biphenyl]-4-yl)-4-oxobutanoic acid, reference compound]	> 100	> 100				
CCCCNC(=O)CCC(=O)c1ccc(-c2ccccc2)cc1 [C18]			100	unexpected bioactivity	87	exhibited biological activity; also recorded: unexpected bioactivity
CCCCCCCCCCCC(=O)NC[C@H]1O[C@@H](n2ccc(=O)[nH]c2=O)[C@H](O)[C@@H]1O [U27]			> 100		~100	exhibited biological activity; also recorded: subtle cytotoxicity
O=C(CCC(=O)c1ccc(-c2ccccc2)cc1)NCC1OC(n2ccc(=O)[nH]c2=O)C(O)C1O (centres unmarked) [U18]			> 100		> 100	
C=C(CC)C(=O)c1ccc(OCC(=O)NCCCC)c(Cl)c1Cl [C15]			18		8 ± 5	exhibited biological activity
CCCCNC(=O)c1cccc(C(=O)c2ccc(F)cc2)c1 [C16]			> 100		> 100	
N.N.[Cl][Pt][Cl] [Cisplatin, reference compound]			8 ± 3		25 ± 6	
O=C(NCC1OC(n2ccc(=O)[nH]c2=O)C(O)C1O)c1ccccc1 (centres unmarked) [U1]			> 100		> 100	
O=C(NCC1OC(n2ccc(=O)[nH]c2=O)CC1O)c1cccc(C(=O)c2ccc(F)cc2)c1 (centres unmarked) [A16]			> 100		> 100	
O=C(O)c1cccc(C(=O)c2ccc(F)cc2)c1 [D16, 3-(4-fluorobenzoyl)benzoic acid, reference compound]	> 100	> 100				
C=C(CC)C(=O)c1ccc(OCC(=O)NC[C@H]2O[C@@H](n3ccc(=O)[nH]c3=O)C[C@@H]2O)c(Cl)c1Cl [A15]			> 100		> 100	exhibited biological activity

Source: patent US20110245088A1, “AMIDE-BASED SOLUTION-PHASE DERIVED LIBRARY AND METHOD FOR SCREENING THEREOF” (NATIONAL TSING HUA UNIVERSITY, priority 2010, published 2011)
